This passage reports IC50 results from US11981661B2, “Heterocyclic compounds” (Hoffmann-La Roche Inc., priority 2020, dated 2024).

Broadly, the IC50 is the concentration that gives 50% inhibition. Low readings indicate greater potency in that assay, high ones weaker potency in that assay.

The target of the test is T1, MAGL (Homo sapiens, UniProt Q99685).
T1 sequence (Q99685 1-303): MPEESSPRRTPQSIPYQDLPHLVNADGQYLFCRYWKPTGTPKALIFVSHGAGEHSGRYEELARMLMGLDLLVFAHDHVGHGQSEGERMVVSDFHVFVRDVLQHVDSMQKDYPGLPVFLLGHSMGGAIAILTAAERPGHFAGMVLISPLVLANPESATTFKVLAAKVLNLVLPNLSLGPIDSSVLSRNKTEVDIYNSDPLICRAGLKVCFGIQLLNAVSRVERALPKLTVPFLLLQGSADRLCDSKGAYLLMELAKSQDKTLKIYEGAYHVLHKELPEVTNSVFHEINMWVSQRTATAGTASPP
As to the kind of experiment: 2-AG assay (MAGL inhibitory activity, hydrolysis of 2-arachidonoylglycerol followed by mass spectrometry). Particulars: 50 pM MAGL, 8 μM 2-arachidonoylglycerol, 15 min preincubation, 30 min incubation at RT, concentration range 12.5 μM to 0.8 pM. Type of test: biochemical. An outline of the steps: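 Activity derived from the arachidonic acid/d8-arachidonic acid MS intensity ratio after acetonitrile quench. Reaction: 8 μM 2-AG substrate with 50 pM MAGL, 30 min at RT, following 15 min RT compound preincubation; buffer 50 mM TRIS, 1 mM EDTA, 0.01% Tween; final compound range 12.5 μM to 0.8 pM.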

Structures are written as SMILES.

Compound `CS(=O)(=O)c1cccc(CN2CCC3(CC2)CN(C(=O)CC[C@@H]2COC(=O)N2)C3)c1` [Example 193, (4R)-4-[3-[7-[(3-Methyl-sulfonylphenyl)methyl]-2,7-diazaspiro[3.5]nonan-2-yl]-3-oxo-propyl] oxazolidin-2-one] had an IC50 of 794 nM. That is a sub-micromolar value. In turn, `O=C1N[C@H](CCC(=O)N2CC3(CCN(Cc4ccc(S(=O)(=O)C(F)(F)F)cc4)CC3)C2)CO1` [Example 194, (4R)-4-[3-Oxo-3-[7-[[4-(trifluoro-methylsulfonyl)phenyl]methyl]-2,7-diazaspiro[3.5]nonan-2-yl]propyl] oxazolidin-2-one] came in with an IC50 of 61 nM. The result for `O=C1N[C@H](CCC(=O)N2CC3(CCN(Cc4cccc(S(=O)(=O)C(F)(F)F)c4)CC3)C2)CO1` [Example 195, (4R)-4-[3-Oxo-3-[7-[[3-(trifluoro-methylsulfonyl)phenyl]methyl]-2,7-diazaspiro [3.5]nonan-2-yl]propyl] oxazolidin-2-one] reads 28 nM; that for `O=C1N[C@H](CCC(=O)N2CC3(CCN(Cc4ccc(C(F)(F)F)nc4)CC3)C2)CO1` [Example 196, (4R)-4-[3-Oxo-3-[7-[[6-(trifluoro-methyl)-3-pyridyl]methyl]-2,7-diazaspiro [3.5]nonan-2-yl]propyl] oxazolidin-2-one], 507 nM; that for `O=C1N[C@H](CCC(=O)N2CC3(CCN(Cc4ccc(C(F)(F)F)cn4)CC3)C2)CO1` [Example 197, (4R)-4-[3-Oxo-3-[7-[[5-(trifluoro-methyl)-2-pyridyl]methyl]-2,7-diazaspiro [3.5]nonan-2-yl]propyl] oxazolidin-2-one], 324 nM. For the compound `O=C1N[C@H](CCC(=O)N2CC3(CCC(Cc4ccc(C(F)(F)F)nc4)C3)C2)CO1` (stereo partly drawn) [Example 198, (4R)-4-[3-Oxo-3-[6-[[6-(trifluoro-methyl)-3-pyridyl]methyl]-2-azaspiro[3.4]octan-2-yl]propyl]oxazolidin-2-one], 73 nM corresponded to half-maximal inhibition (IC50). The same measure for `COC(=O)c1cc(Cl)ccc1Oc1ccc(C2CN(C(=O)CC[C@@H]3COC(=O)N3)C2)cn1` [Example 199, Methyl 5-chloro-2-[[5-[1-[3-[(4R)-2-oxooxazolidin-4-yl]propanoyl]azetidin-3-yl]-2-pyridyl]oxy]benzoate]: 14 nM. Compound `O=C1N[C@H](CCC(=O)N2CC(c3ccc([C@H]4C[C@@H](C(F)(F)F)C4)nc3)C2)CO1` [Example 202, Cis-(4R)-4-[3-Oxo-3-[3-[6-[3-(trifluoromethyl)cyclobutyl]-3-pyridyl]azetidin-1-yl]propyl]oxazolidin-2-one] gave an IC50 of 37 nM. The result for `O=C1N[C@H](CCC(=O)N2CC(c3ccc([C@H]4C[C@H](C(F)(F)F)C4)nc3)C2)CO1` [Example 203, Trans-(4R)-4-[3-Oxo-3-[3-[6-[3-(trifluoromethyl)cyclobutyl]-3-pyridyl]azetidin-1-yl]propyl]oxazolidin-2-one] reads 75 nM. Regarding `O=C1N[C@H](CCC(=O)N2CC(c3ccc(N4CCC(O)(C(F)(F)F)C4)nc3)C2)CO1` (stereo partly drawn) [Example 205, (+)- or (−)-(4R)-4-[3-[3-[6-[3-Hydroxy-3-(trifluoromethyl)pyrrolidin-1-yl]-3-pyridyl]azetidin-1-yl]-3-oxo-propyl]oxazolidin-2-one], the IC50 was found to be 170 nM. Compound `O=C1N[C@H](CCC(=O)N2CC(c3ccc(N4CCC(O)(C(F)(F)F)C4)nc3)C2)CO1` (stereo partly drawn) [Example 207, (+)- or (−)-(4R)-4-[3-[3-[6-[3-Hydroxy-3-(trifluoromethyl)pyrrolidin-1-yl]-3-pyridyl]azetidin-1-yl]-3-oxo-propyl]oxazolidin-2-one] had an IC50 of 17 nM. The same measure for `CS(=O)(=O)c1cc(Cl)ccc1-c1ccc(C2CN(C(=O)NCC3COC(=O)N3)C2)cc1` (stereo not shown) [Example 212, 3-[4-(4-Chloro-2-methylsulfonyl-phenyl)phenyl]-N-[(2-oxooxazolidin-4-yl)methyl]azetidine-1-carboxamide]: 25 nM; for `O=C1NCC(CCC(=O)N2CC3(CC(Cc4ccc(C(F)(F)F)nc4)C3)C2)N1` (stereo not shown) [Example 213, 4-[3-Oxo-3-[6-[[6-(trifluoromethyl)-3-pyridyl]methyl]-2-azaspiro[3.3]heptan-2-yl]propyl]imidazolidin-2-one]: 2250 nM; for `O=C1NCC(CCC(=O)N2CC(c3ccc(C4(C(F)(F)F)CC4)cc3)C2)N1` (stereo not shown) [Example 214, 4-[3-Oxo-3-[3-[4-[1-(trifluoromethyl)cyclopropyl]phenyl]azetidin-1-yl]propyl]imidazolidin-2-one]: 157 nM. The same measure for `O=C1NCC(CCC(=O)N2CC(OCc3ccc(C(F)(F)F)cc3F)C2)N1` (stereo not shown) [Example 215, 4-[3-[3-[[2-Fluoro-4-(trifluoromethyl)phenyl]methoxy]azetidin-1-yl]-3-oxo-propyl]imidazolidin-2-one]: 860 nM; for `CS(=O)(=O)c1cc(Cl)ccc1-c1ccc(C2CN(C(=O)CCC3CNC(=O)N3)C2)cc1` (stereo not shown) [Example 216, 4-[3-[3-[4-(4-Chloro-2-methylsulfonyl-phenyl)phenyl]azetidin-1-yl]-3-oxo-propyl]imidazolidin-2-one]: 68 nM.
